ChEMBL document CHEMBL3351906, “Bioactive triterpenoid saponins and phenolic compounds against glioma cells” (Bioorg Med Chem Lett, 2014)

Tests used:
C6 [1] = assay: Inhibition of cell proliferation of rat C6 cells assessed as cell viability after 72 hrs by sulforhodamine B assay; type: functional, cell-based; conditions: C6, 72 h
U-251 [2] = assay: Inhibition of cell proliferation of human U251 cells assessed as cell viability at 100 uM after 72 hrs by sulforhodamine B assay; type: functional; conditions: U-251, 72 h, read-out: Activity
U-251 [3] = assay: Inhibition of cell proliferation of human U251 cells assessed as cell viability after 72 hrs by sulforhodamine B assay; type: functional, cell-based; conditions: U-251, 72 h
C6 [4] = assay: Inhibition of cell proliferation of rat C6 cells assessed as cell viability at 100 uM after 72 hrs by sulforhodamine B assay; type: functional; conditions: C6, 72 h, read-out: Activity

| SMILES | IC50 (C6 [1]) | viability at 100 µM (U-251 [2]) | IC50 (U-251 [3]) | viability at 100 µM (C6 [4]) |
| --- | --- | --- | --- | --- |
| CC(=O)Oc1cc(CCOC(=O)CCc2ccc(O)c(OC(C)=O)c2)ccc1O | 8.47 µM | 39.8% | 26.8 µM | – |
| CC(=O)Oc1ccc(CCOC(=O)CCc2ccc(OC(C)=O)c(OC(C)=O)c2)cc1OC(C)=O | 12.8 µM | 43.5% | 37.2 µM | – |
| C=CC(C)(O)CC/C=C(\CO)C(=O)OC[C@H]1O[C@@H](OC(=O)[C@]23CCC(C)(C)C[C@H]2C2=CC[C@@H]4[C@@]5(C)CC[C@H](O[C@@H]6O[C@H](CO[C@@H]7OC[C@H](O)[C@H](O)[C@H]7O[C@@H]7OC[C@@H](O)[C@H](O)[C@H]7O)[C@@H](O)[C@H](O)[C@H]6O)C(C)(C)[C@@H]5CC[C@@]4(C)[C@]2(C)CC3)[C@H](O[C@@H]2O[C@@H](C)[C@H](O[C@@H]3OC[C@@H](O)[C@H](O[C@@H]4OC[C@@H](O)[C@H](O)[C@H]4O)[C@H]3O)[C@@H](O)[C@H]2O)[C@@H](O)[C@@H]1O (some centres undefined) | 31.7 µM | 32.9% | 44.5 µM | – |
| C=C[C@@](C)(O)CC/C=C(\C)C(=O)O[C@H]1[C@H](OC[C@H]2O[C@@H](OC(=O)[C@]34CCC(C)(C)C[C@@H]3C3=CC[C@@H]5[C@@]6(C)CC[C@H](O[C@@H]7O[C@H](CO[C@@H]8OC[C@H](O)[C@H](O)[C@H]8O[C@@H]8OC[C@@H](O)[C@H](O)[C@H]8O)[C@@H](O)[C@H](O)[C@H]7O)C(C)(C)[C@@H]6CC[C@@]5(C)[C@]3(C)C[C@H]4O)[C@H](O[C@@H]3O[C@@H](C)[C@H](O[C@@H]4OC[C@@H](O)[C@H](O[C@@H]5OC[C@@H](O)[C@H](O)[C@H]5O)[C@H]4O)[C@@H](O)[C@H]3O)[C@@H](O)[C@@H]2O)O[C@@H](C)[C@H](O)[C@H]1OC(=O)/C(=C/CC[C@](C)(O)C=C)CO [GLEDITSIA SAPONIN C] | 17.6 µM | 34.9% | 46.8 µM | – |
| C/C=C(\C)C(=O)O[C@H]1[C@H](O)[C@]2(COC(C)=O)[C@H](O)C[C@]3(C)C(=CC[C@@H]4[C@@]5(C)CC[C@H](O[C@@H]6O[C@H](C(=O)OC)[C@@H](O[C@@H]7O[C@H](CO)[C@@H](O)[C@H](O)[C@H]7O)[C@H](O)[C@H]6O[C@@H]6O[C@H](CO)[C@@H](O)[C@H](O)[C@H]6O)[C@](C)(CO)[C@@H]5CC[C@]43C)[C@@H]2CC1(C)C | 60.7 µM | 26.2% | 48.4 µM | – |
| C/C=C(\C)C(=O)O[C@H]1[C@H](O)[C@]2(COC(C)=O)[C@H](O)C[C@]3(C)C(=CC[C@@H]4[C@@]5(C)CC[C@H](O[C@@H]6O[C@H](C(=O)O)[C@@H](O[C@@H]7O[C@H](CO)[C@@H](O)[C@H](O)[C@H]7O)[C@H](O)[C@H]6O[C@@H]6O[C@H](CO)[C@@H](O)[C@H](O)[C@H]6O)[C@](C)(CO)[C@@H]5CC[C@]43C)[C@@H]2CC1(C)C [ISOESCIN IA] | 54.5 µM | 61.1% | 80.4 µM | – |
| C=CC(C)(O)CC/C=C(\CO)C(=O)O[C@H]1[C@H](O)[C@@H](COC(=O)/C(C)=C/CC[C@](C)(O)C=C)O[C@@H](OC(=O)[C@]23CCC(C)(C)C[C@H]2C2=CC[C@@H]4[C@@]5(C)CC[C@H](O[C@@H]6O[C@H](CO[C@@H]7OC[C@H](O)[C@H](O)[C@H]7O[C@@H]7OC[C@@H](O)[C@H](O)[C@H]7O)[C@@H](O)[C@H](O)[C@H]6O)C(C)(C)[C@@H]5CC[C@@]4(C)[C@]2(C)CC3)[C@@H]1O[C@@H]1O[C@@H](C)[C@H](O[C@@H]2OC[C@@H](O)[C@H](O[C@@H]3OC[C@@H](O)[C@H](O)[C@H]3O)[C@H]2O)[C@@H](O)[C@H]1O (some centres undefined) | 13.6 µM | 9.84% | 15.2 µM | – |
| CC(C)=CCC[C@@H](C)[C@H]1CC[C@]2(C)[C@@H]1[C@H](O)C[C@@H]1[C@@]3(C)CC[C@H](O)C(C)(C)[C@@H]3[C@@H](O)C[C@]12C | 49.7 µM | 49.4% | 117 µM | – |
| C=CC(C)(O)CC/C=C(\CO)C(=O)O[C@H]1[C@H](OC[C@H]2O[C@@H](OC(=O)[C@]34CCC(C)(C)C[C@H]3C3=CC[C@@H]5[C@@]6(C)CC[C@H](O[C@@H]7O[C@H](CO[C@@H]8OC[C@H](O)[C@H](O)[C@H]8O[C@@H]8OC[C@@H](O)[C@H](O)[C@H]8O)[C@@H](O)[C@H](O)[C@H]7O)C(C)(C)[C@@H]6CC[C@@]5(C)[C@]3(C)C[C@H]4O)[C@H](O[C@@H]3O[C@@H](C)[C@H](O[C@@H]4OC[C@@H](O)[C@H](O[C@@H]5OC[C@@H](O)[C@H](O)[C@H]5O)[C@H]4O)[C@@H](O)[C@H]3O)[C@@H](O)[C@@H]2O)O[C@@H](C)[C@H](O)[C@H]1OC(=O)/C(C)=C/CC[C@@](C)(O)C=C (some centres undefined) | 30.3 µM | 29.2% | 43.1 µM | – |
| CC(C)=CCC[C@](C)(O[C@@H]1O[C@H](CO[C@@H]2O[C@H](CO)[C@@H](O)[C@H](O)[C@H]2O)[C@@H](O)[C@H](O)[C@H]1O)[C@H]1CC[C@]2(C)[C@@H]1[C@H](O)C[C@@H]1[C@@]3(C)CC[C@H](O[C@@H]4O[C@H](CO)[C@@H](O)[C@H](O)[C@H]4O)C(C)(C)[C@@H]3CC[C@]12C [GYPENOSIDE XVII] | – | 86.5% | – | 80.8% |
| CC(C)=CCC[C@](C)(O[C@@H]1O[C@H](CO)[C@@H](O)[C@H](O)[C@H]1O)[C@H]1CC[C@]2(C)[C@@H]1[C@H](O)C[C@@H]1[C@@]3(C)CC[C@H](O[C@@H]4O[C@H](CO)[C@@H](O)[C@H](O)[C@H]4O)C(C)(C)[C@@H]3CC[C@]12C [GINSENOSIDE F2] | – | 64.6% | – | 117% |
| COc1c(O)ccc(O)c1-c1cc(=O)c2c(O)cc(O)c(OC)c2o1 | – | 87.5% | – | 57.7% |
| CC(C)=CCC[C@](C)(O[C@@H]1O[C@H](CO)[C@@H](O)[C@H](O)[C@H]1O)[C@H]1CC[C@]2(C)[C@@H]1[C@H](O)C[C@@H]1[C@@]3(C)CC[C@H](O[C@@H]4O[C@H](CO)[C@@H](O)[C@H](O)[C@H]4O[C@@H]4O[C@H](CO)[C@@H](O)[C@H](O)[C@H]4O)C(C)(C)[C@@H]3CC[C@]12C [GINSENOSIDE RD] | – | 78.4% | – | 102% |
| CC(C)=CCC[C@](C)(O[C@@H]1O[C@H](CO[C@@H]2O[C@@H](CO)[C@H](O)[C@H]2O)[C@@H](O)[C@H](O)[C@H]1O)[C@H]1CC[C@]2(C)[C@@H]1[C@H](O)C[C@@H]1[C@@]3(C)CC[C@H](O[C@@H]4O[C@H](CO)[C@@H](O)[C@H](O)[C@H]4O[C@@H]4O[C@H](CO)[C@@H](O)[C@H](O)[C@H]4O)C(C)(C)[C@@H]3CC[C@]12C [GINSENOSIDE RC] | – | 87.7% | – | 79% |
| O=c1c(O)c(-c2ccc(O)c(O)c2)oc2cc(O)cc(O)c12 [QUERCETIN] | 18.4 µM | 62.9% | 77.8 µM | – |
| O=C(/C=C/c1ccc(O)c(O)c1)O[C@H]1[C@H](O)C[C@@](O)(C(=O)O)C[C@H]1O | – | 52.8% | – | 133% |
| O=C(CCc1ccc(O)c(O)c1)OCCc1ccc(O)c(O)c1 | 6.16 µM | 55% | 24.3 µM | – |
| CC(C)=CCC[C@](C)(O)[C@H]1CC[C@]2(C)[C@@H]1[C@H](O)C[C@@H]1[C@@]3(C)CC[C@H](O)C(C)(C)[C@@H]3[C@@H](O[C@@H]3O[C@H](CO)[C@@H](O)[C@H](O)[C@H]3O[C@@H]3OC[C@@H](O)[C@H](O)[C@H]3O)C[C@]12C | – | 108% | – | 59.3% |
| O=C(/C=C/c1ccc(O)c(O)c1)O[C@H]1[C@H](O)C[C@](O)(C(=O)O)C[C@H]1OC(=O)/C=C/c1ccc(O)c(O)c1 | – | 119% | – | 46% |
| C/C=C(\C)C(=O)O[C@H]1[C@H](O)[C@]2(CO)[C@H](O)C[C@]3(C)C(=CC[C@@H]4[C@@]5(C)CC[C@H](O[C@@H]6O[C@H](C(=O)O)[C@@H](O[C@@H]7O[C@H](CO)[C@@H](O)[C@H](O)[C@H]7O)[C@H](O)[C@H]6O[C@@H]6O[C@H](CO)[C@@H](O)[C@H](O)[C@H]6O)[C@@](C)(CO)[C@@H]5CC[C@]43C)[C@@H]2CC1(C)C | – | 92.7% | – | 89.6% |
| CC(C)=CC/C=C(/C)[C@H]1CC[C@]2(C)[C@@H]1[C@H](O)C[C@@H]1[C@@]3(C)CC[C@H](O)C(C)(C)[C@@H]3[C@@H](O)C[C@]12C | – | 92.7% | – | 75.6% |
| C/C=C(/C)C(=O)O[C@H]1[C@H](O)[C@]2(COC(C)=O)[C@H](O)C[C@]3(C)C(=CC[C@@H]4[C@@]5(C)CC[C@H](O[C@@H]6O[C@H](C(=O)O)[C@@H](O[C@@H]7O[C@H](CO)[C@@H](O)[C@H](O)[C@H]7O)[C@H](O)[C@H]6O[C@@H]6O[C@H](CO)[C@@H](O)[C@H](O)[C@H]6O)[C@](C)(CO)[C@@H]5CC[C@]43C)[C@@H]2CC1(C)C [ISOESCIN IB] | 77.8 µM | 29.7% | 68.9 µM | – |
| C=C[C@@](C)(O)CC/C=C(\CO)C(=O)OC[C@H]1O[C@@H](OC(=O)[C@]23CCC(C)(C)C[C@H]2C2=CC[C@@H]4[C@@]5(C)CC[C@H](O[C@@H]6O[C@H](CO[C@@H]7OC[C@H](O)[C@H](O)[C@H]7O[C@@H]7OC[C@@H](O)[C@H](O)[C@H]7O)[C@@H](O)[C@H](O)[C@H]6O)C(C)(C)[C@@H]5CC[C@@]4(C)[C@]2(C)C[C@H]3O)[C@H](O[C@@H]2O[C@@H](C)[C@H](O[C@@H]3OC[C@@H](O)[C@H](O[C@@H]4OC[C@@H](O)[C@H](O)[C@H]4O)[C@H]3O)[C@@H](O)[C@H]2O[C@@H]2O[C@H](CO)[C@H](O)[C@H](O)[C@H]2O)[C@@H](O)[C@@H]1O | 18.1 µM | 28.6% | 19.2 µM | – |
